Columns and labels:
Type in all cases: in vivo
[1] = test system: Beet Armyworm (Spodoptera exigua, LAPHEG); test: Bioassay on Beet Armyworm (BAW), 128-well diet tray assay; conditions: Beet Armyworm, 128-well diet tray assay, read-out: BAW rating
Summary of the method: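 Second-instar larvae, one to five per well, placed on artificial diet surface-treated with 50 μg/cm^2 compound applied in 90:10 acetone-water and dried. Held 5–7 days at 25° C., 14:10 light-dark. Percent mortality recorded per well and averaged over eight wells.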

[2] = test system: Cabbage Looper (Trichoplusia ni, TRIPNI); test: Bioassay on Cabbage Looper (CL), 128-well diet tray assay; conditions: Trichoplusia ni; Cabbage Looper, 128-well diet tray assay; read-out: CL rating
Summary of the method: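 Second-instar larvae, one to five per well, were placed on artificial diet surface-treated with 50 μg/cm^2 test molecule applied in 90:10 acetone-water and dried, eight wells per molecule. Trays were covered, vented and held at 25° C., 14:10 light-dark for five to seven days; percent mortality per well was averaged.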

[3] = test system: Yellow Fever Mosquito (Aedes aegypti, AEDSAE); test: Bioassay on Yellow Fever Mosquito (YFM), 96-well plate larval assay; conditions: Yellow Fever Mosquito, 96-well plate larval assay
Summary of the method: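 Each well was scored for mortality after 3 days at room temperature under a non-evaporative lid. Test molecules came from DMSO masters (4000 ppm stock) diluted with water/acetone 90:10 and dispensed into six replicate plates, which were then infested with roughly 1-day-old larvae in liver-powder water.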

SMILES | pest or weed control at 50 µg/cm2 [1] | pest or weed control at 50 µg/cm2 [2] | YFM rating [3]
O=C(Nc1cc(F)cc([N+](=O)[O-])c1)c1cc(NC(=O)[C@H]2[C@H](c3cc(Cl)c(Cl)c(Cl)c3)C2(Cl)Cl)ccc1Cl [F417, 2-Chloro-5-((1R,3R)-2,2-dichloro-3-(3,4,5-trichlorophenyl)cyclopropane-1-carboxamido)-N-(3-fluoro-5-nitrophenyl)benzamide] | 50 to 100% | 50 to 100% | A (80-100)
O=C(Nc1cc(F)cc([N+](=O)[O-])c1)c1cc(NC(=O)[C@H]2[C@H](c3ccc(F)c(Cl)c3)C2(Cl)Cl)ccc1Cl [F418, 2-Chloro-5-((1R,3R)-2,2-dichloro-3-(3-chloro-4-fluorophenyl)cyclopropane-1-carboxamido)-N-(3-fluoro-5-nitrophenyl)benzamide] | 50 to 100% | 50 to 100% | A (80-100)
Nc1cc(F)cc(NC(=O)c2cc(NC(=O)[C@H]3[C@H](c4cc(Cl)cc(Cl)c4)C3(Cl)Cl)ccc2Cl)c1 [F419, N-(3-Amino-5-fluorophenyl)-2-chloro-5-((1R,3R)-2,2-dichloro-3-(3,5-dichlorophenyl)cyclopropane-1-carboxamido)benzamide] | 50 to 100% | 50 to 100% | B (More than 0-Less than 80)
Nc1c(F)cc(F)cc1NC(=O)c1cc(NC(=O)[C@H]2[C@H](c3ccc(F)c(Cl)c3)C2(Cl)Cl)ccc1Cl [F420, N-(2-Amino-3,5-difluorophenyl)-2-chloro-5-((1R,3R)-2,2-dichloro-3-(3-chloro-4-fluorophenyl)cyclopropane-1-carboxamido)benzamide] | 50 to 100% | 50 to 100% | A (80-100)
Nc1ccc(F)cc1NC(=O)c1cc(NC(=O)[C@H]2[C@H](c3ccc(F)c(Cl)c3)C2(Cl)Cl)ccc1Cl [F421, N-(2-Amino-5-fluorophenyl)-2-chloro-5-((1R,3R)-2,2-dichloro-3-(3-chloro-4-fluorophenyl)cyclopropane-1-carboxamido)benzamide] | 50 to 100% | 50 to 100% | A (80-100)
Nc1cccc(NC(=O)c2cc(NC(=O)[C@H]3[C@H](c4cc(Cl)cc(Cl)c4)C3(Cl)Cl)ccc2Cl)c1F [F426, N-(3-Amino-2-fluorophenyl)-2-chloro-5-((1R,3R)-2,2-dichloro-3-(3,5-dichlorophenyl)cyclopropane-1-carboxamido)benzamide] | 50 to 100% | 50 to 100% | A (80-100)
Nc1ccc(F)c(NC(=O)c2cc(NC(=O)[C@H]3[C@H](c4cc(Cl)cc(Cl)c4)C3(Cl)Cl)ccc2Cl)c1 [F427, N-(5-Amino-2-fluorophenyl)-2-chloro-5-((1R,3R)-2,2-dichloro-3-(3,5-dichlorophenyl)cyclopropane-1-carboxamido)benzamide] | 50 to 100% | 50 to 100% | A (80-100)
Nc1ccc(F)c(NC(=O)c2cc(NC(=O)[C@H]3[C@H](c4ccc(Cl)c(Cl)c4)C3(Cl)Cl)ccc2Cl)c1 [F428, N-(5-Amino-2-fluorophenyl)-2-chloro-5-((1R,3R)-2,2-dichloro-3-(3,4-dichlorophenyl)cyclopropane-1-carboxamido)benzamide] | 50 to 100% | 50 to 100% | A (80-100)
Nc1ccc(F)c(NC(=O)c2cc(NC(=O)[C@H]3[C@H](c4cc(Cl)c(Cl)c(Cl)c4)C3(Cl)Cl)ccc2Cl)c1 [F429, N-(5-Amino-2-fluorophenyl)-2-chloro-5-((1R,3R)-2,2-dichloro-3-(3,4,5-trichlorophenyl)cyclopropane-1-carboxamido)benzamide] | 50 to 100% | 50 to 100% | A (80-100)
Nc1ccc(F)c(NC(=O)c2cc(NC(=O)[C@H]3[C@H](c4ccc(F)c(Cl)c4)C3(Cl)Cl)ccc2Cl)c1 [F430, N-(5-Amino-2-fluorophenyl)-2-chloro-5-((1R,3R)-2,2-dichloro-3-(3-chloro-4-fluorophenyl)cyclopropane-1-carboxamido)benzamide] | 50 to 100% | 50 to 100% | A (80-100)
Nc1cc(F)cc(NC(=O)c2cc(NC(=O)[C@H]3[C@H](c4ccc(Cl)c(Cl)c4)C3(Cl)Cl)ccc2Cl)c1 [F431, N-(3-Amino-5-fluorophenyl)-2-chloro-5-((1R,3R)-2,2-dichloro-3-(3,4-dichlorophenyl)cyclopropane-1-carboxamido)benzamide] | 50 to 100% | 50 to 100% | A (80-100)
Nc1cc(F)cc(NC(=O)c2cc(NC(=O)[C@H]3[C@H](c4cc(Cl)c(Cl)c(Cl)c4)C3(Cl)Cl)ccc2Cl)c1 [F432, N-(3-Amino-5-fluorophenyl)-2-chloro-5-((1R,3R)-2,2-dichloro-3-(3,4,5-trichlorophenyl)cyclopropane-1-carboxamido)benzamide] | 50 to 100% | 50 to 100% | A (80-100)
Nc1cc(F)cc(NC(=O)c2cc(NC(=O)[C@H]3[C@H](c4ccc(F)c(Cl)c4)C3(Cl)Cl)ccc2Cl)c1 [F433, N-(3-Amino-5-fluorophenyl)-2-chloro-5-((1R,3R)-2,2-dichloro-3-(3-chloro-4-fluorophenyl)cyclopropane-1-carboxamido)benzamide] | 50 to 100% | 50 to 100% | A (80-100)
O=C(Nc1ccc2[nH]ccc2c1)c1cc(NC(=O)C2C(c3cc(Cl)cc(Cl)c3)C2(Cl)Cl)ccc1Cl (stereo not drawn) [F435, 2-Chloro-5-(trans)-2,2-dichloro-3-(3,5-dichlorophenyl)cyclopropane-1-carboxamido)-N-(1H-indol-5-yl)benzamide] | 50 to 100% | 50 to 100% | A (80-100)
O=C(Nc1ccc2cccnc2c1)c1cc(NC(=O)C2C(c3cc(Cl)cc(Cl)c3)C2(Cl)Cl)ccc1Cl (stereo not drawn) [F436, 2-Chloro-5-(trans)-2,2-dichloro-3-(3,5-dichlorophenyl)cyclopropane-1-carboxamido)-N-(quinolin-7-yl)benzamide] | 50 to 100% | 50 to 100% | B (More than 0-Less than 80)
O=C(Nc1cnc2cc[nH]c2c1)c1cc(NC(=O)C2C(c3cc(Cl)cc(Cl)c3)C2(Cl)Cl)ccc1Cl (stereo not drawn) [F437, 2-Chloro-5-(trans)-2,2-dichloro-3-(3,5-dichlorophenyl)cyclopropane-1-carboxamido)-N-(1H-pyrrolo[3,2-b]pyridin-6-yl)benzamide] | 50 to 100% | 50 to 100% | B (More than 0-Less than 80)
O=C(Nc1nc2ccccc2s1)c1cc(NC(=O)C2C(c3cc(Cl)cc(Cl)c3)C2(Cl)Cl)ccc1Cl (stereo not drawn) [F441, N-(Benzo[d]thiazol-2-yl)-2-chloro-5-(trans)-2,2-dichloro-3-(3,5-dichlorophenyl)cyclopropane-1-carboxamido)benzamide] | 50 to 100% | 50 to 100% | B (More than 0-Less than 80)
O=C(Nc1nc2cc(F)ccc2s1)c1cc(NC(=O)C2C(c3cc(Cl)cc(Cl)c3)C2(Cl)Cl)ccc1Cl (stereo not drawn) [F442, 2-Chloro-5-(trans)-2,2-dichloro-3-(3,5-dichlorophenyl)cyclopropane-1-carboxamido)-N-(5-fluorobenzo[d]thiazol-2-yl)benzamide] | 50 to 100% | 50 to 100% | B (More than 0-Less than 80)
O=C(Nc1nc2c(Cl)cccc2s1)c1cc(NC(=O)C2C(c3cc(Cl)cc(Cl)c3)C2(Cl)Cl)ccc1Cl (stereo not drawn) [F443, 2-Chloro-N-(4-chlorobenzo[d]thiazol-2-yl)-5-(trans)-2,2-dichloro-3-(3,5-dichlorophenyl)cyclopropane-1-carboxamido)benzamide] | 50 to 100% | 50 to 100% | B (More than 0-Less than 80)
O=C(Nc1nc2ccc(F)cc2s1)c1cc(NC(=O)C2C(c3cc(Cl)cc(Cl)c3)C2(Cl)Cl)ccc1Cl (stereo not drawn) [F445, 2-Chloro-5-(trans)-2,2-dichloro-3-(3,5-dichlorophenyl)cyclopropane-1-carboxamido)-N-(6-fluorobenzo[d]thiazol-2-yl)benzamide] | 50 to 100% | 50 to 100% | B (More than 0-Less than 80)
O=C(Nc1nc2ccccc2o1)c1cc(NC(=O)C2C(c3cc(Cl)cc(Cl)c3)C2(Cl)Cl)ccc1Cl (stereo not drawn) [F447, N-(Benzo[d]oxazol-2-yl)-2-chloro-5-(trans)-2,2-dichloro-3-(3,5-dichlorophenyl)cyclopropane-1-carboxamido)benzamide] | 50 to 100% | 50 to 100% | A (80-100)
Cn1nc(NC(=O)c2cc(NC(=O)C3C(c4cc(Cl)cc(Cl)c4)C3(Cl)Cl)ccc2Cl)c2c(F)cccc21 (stereo not drawn) [F449, 2-Chloro-5-(trans)-2,2-dichloro-3-(3,5-dichlorophenyl)cyclopropane-1-carboxamido)-N-(4-fluoro-1-methyl-1H-indazol-3-yl)benzamide] | 50 to 100% | 50 to 100% | A (80-100)

— patent US10219516B2, “Molecules having pesticidal utility, and intermediates, compositions, and processes, related thereto” (priority 2015, dated 2019)
